Source: patent US20080014133A1, “Extraction Of Radionuclides By Crown Ether-Containing Extractants” (priority 2004, published 2008)

Assays:
[1] = Distribution ratio of strontium extracted in organic solutions of crown ethers (Table 1); assay type: physicochemical; conditions: Sr and Cs 1 g/l, nitric acid about 3.0 mol/l
Method: (§1) Study was carried out for determining the distribution ratios of radionuclides, for example, strontium or cesium to be extracted by the extractants according to the invention containing various crown ethers as a complexing agent: bis(tert-butylbenzo)-18-crown-6 (subsequently referred to as DTBDB18C6), di-isooctylbenzo-18-crown-6 (subsequently referred to as DIODB18C6), bis(tert-butylcyclohexane-18-crown-6 (subsequently referred to as DTBDCH18C6), di-isooxyldicyclohexane-18-crown-6 (subsequently referred to as DIODCH18C6), bicyclohexane-18-crown-6 (subsequently referred to as DCH18C6) or dibenzo-21-crown-7 (subsequently referred to as DB21C7), in an organic solvent according to the invention: polyfluorinated telomeric alcohol 1,1,7-trihydrododecafluoroheptanol-1 (subsequently referred to as fluoroheptanol n3).
(§2) For comparison, the distribution ratios of strontium and cesium were determined using extractants containing similar crown ethers in another organic solvent (decane).
(§3) Taken for the tests were experimental aqueous nitrate solutions containing strontium and cesium in a concentration of 1 g/l with a content of nitric acid of about 3.0 mol/l.

[2] = Distribution ratio of cesium extracted in organic solutions of crown ethers (Table 1); assay type: physicochemical; conditions: Sr and Cs 1 g/l, nitric acid about 3.0 mol/l
Method: as §1, §2, §3

[3] = Influence of nitric acid concentration on extraction of sodium; assay type: physicochemical; conditions: crown ether about 0.1 mol/l in Fluoroheptanol n3
Method: Selected for study were extractants containing crown ethers: DB18C6, DTBDB18C6, DCH18C6 or DB21C7 in a concentration of about 0.1 mol/l in Fluoroheptanol n3. Used as experimental solutions were aqueous solutions of sodium nitrate whose concentration was determined using radiometric techniques on previously added aliquot of a sodium-22 isotope.

[4] = as described in US patent 4749518; cited from earlier work
[5] = as described in US patent 4749518; cited from earlier work; remark: listed apart in the source
[6] = as described in US patent 4749518; cited from earlier work; remark: listed apart in the source
[7] = as described in US patent 4749518; cited from earlier work; remark: listed apart in the source
[8] = as described in US patent 4749518; cited from earlier work; remark: listed apart in the source
[9] = as described in US patent 4749518; with dinanylnaphthalene sulfonic acid in tributyl phosphate and kerosene; cited from earlier work
[10] = Radiation resistance of the extractants (gamma irradiation); assay type: physicochemical; conditions: for Distribution ratio DMe after irradiation / Distribution ratio after irradiation, % of original: dose 100.0 kGr (10^7 rad); for Usefulness of extractant after irradiation: dose 285.3 kGr
From the text: The radiation resistance of the extractants according to the invention used for extraction radionuclides of strontium or cesium was studied. For this purpose, reaction mixtures consisting of biphase water-organic systems containing extractants based on crown ethers DCH18C6 or DB21C7 in Fluoroheptanol n3 and aqueous nitrate waste solutions, and, for comparison, reaction mixtures containing extractants based on crown ethers Crown XVI or Crown XVII with a cation exchanger—dinanylnaphthalene of sulfonic acids in a matrix solution comprising tributyl phosphate and kerosene were irradiated with gamma-rays […] in a temperature-controlled cell of stainless steel with continuous agitation by bubbling. The maximum integrated radiation dose was equal to 285.3 kGr. The extractant samples were tested and the extraction characteristics were measured before and after the irradiation to determine a decrease of the distribution ratio DMe due to the radiological destruction of extractant components.

[11] = as described in US patent 4749518; cited from earlier work; remark: listed apart in the source
[12] = as described in US patent 4749518; cited from earlier work; remark: listed apart in the source
[13] = as described in US patent 4749518; cited from earlier work; remark: listed apart in the source
[14] = Influence of nitric acid concentration on cesium extraction from solution No.1; assay type: physicochemical; conditions: solution No.1
From the text: The dependence of extraction of cesium by organic solutions DTBDB18C6 in fluoropentanol n3 and DB21C7 in Fluoroheptanol n3 at a concentration of nitric acid in a starting solution was studied. Solution No.1 whose composition is listed in Table 2 was used as a starting solution.

[15] = Interaction of extractants with sodium (organic/aqueous phase concentration); assay type: physicochemical
Method: The characteristics of the extractants according to the invention in the process of extraction of sodium from acidic aqueous solutions of high-level waste were determined. For this purpose, the concentration of sodium in the organic and aqueous phases containing extractants based on DTBDB18C6 or DCH18C6 or DB21C7 in a concentration about of 0.05 mol/l in fluoroheptanol n3 were analyzed.

[16] = Influence of sodium concentration on extraction of cesium; assay type: physicochemical; conditions: Cs 1 g/l, nitric acid about 3.0 mol/l
Method: Extraction of cesium was made involving starting solutions containing 1 g/l of cesium in nitric acid having concentration about of 3.0 mol/l at different concentration of sodium. The solutions were treated with the extractants according to the invention containing crown ether DTBDB18C6 in a concentration about of 0.1 mol/l in fluoroheptanol n3.

[17] = crown ether 0.1 mole/l in Decane
[18] = crown ether 0.1 mole/l in Fluoroheptanol n3

di-isooctylbenzo-18-crown-6 [DIODB18C6]
Distribution ratio Strontium [1, 17]: 0.05 | Distribution ratio Strontium [1, 18]: 0.06 | Distribution ratio Cesium [2, 17]: 0.004 | Distribution ratio Cesium [2, 18]: 4.23

c1ccc2c(c1)OCCOCCOc1ccccc1OCCOCCO2 [DB18C6, dibenzo-18-crown-6]
Distribution ratios of sodium ([3]; nitric acid 0 mol/l): 0.025 | Distribution ratios of sodium ([3]; nitric acid 0.1 mol/l): 0.04 | Distribution ratios of sodium ([3]; nitric acid 0.5 mol/l): 0.15 | Distribution ratios of sodium ([3]; nitric acid 1.0 mol/l): 0.21 | Distribution ratios of sodium ([3]; nitric acid 3.0 mol/l): 0.49 | Distribution ratios of sodium ([3]; nitric acid 5.0 mol/l): 0.67

CCCCC(CC)C(O)c1ccc2c(c1)OCCOCCOc1cc(C(O)C(CC)CCCC)ccc1OCCOCCO2 (mixture of isomers) [Crown XVII, bis-4,4′(5′)[1-hydroxy-2-ethylhexyl]benzo-18-crown-6]
Distribution ratios, Sr [4]: 0.06 | Distribution ratios, Pd [5]: 0.22 | Distribution ratios, Cs [6]: 1.59 | Distribution ratios, Ru [7]: 0.31 | Distribution ratios, Y [8]: 0.02 | Distribution ratios, Ba [9]: 0.03 | Distribution ratio before irradiation ([10]; Cs): 1.59 | Distribution ratio DMe after irradiation ([10]; Cs): 1.04 | Distribution ratio after irradiation, % of original ([10]; Cs): 65.41% | Reduction of the distribution ratio of cesium after irradiation ([10]; dose 100 kGr): 35% | Usefulness of extractant after irradiation [10]: practically useless | Distribution ratios, Rare-earth [11]: 0.17 | Distribution ratios, Rb [12]: 0.29 | Distribution ratios, Zr [13]: 2.09

CCCCCCC(O)C1CCC2OCCOCCOC3CCC(C(O)CCCCCC)CC3OCCOCCOC2C1 (mixture of isomers) [Crown XVI, bis-4,4′(5′)[1-hydroxyheptyl]cyclohexo-18-crown-6]
Distribution ratios, Sr [4]: 3.84 | Distribution ratios, Pd [5]: 0.05 | Distribution ratios, Cs [6]: 0.03 | Distribution ratios, Ru [7]: 0.26 | Distribution ratios, Y [8]: 0.02 | Distribution ratios, Ba [9]: 4.2 | Distribution ratio before irradiation ([10]; Sr): 1.98 | Distribution ratio DMe after irradiation ([10]; Sr): 1.56 | Distribution ratio after irradiation, % of original ([10]; Sr): 78.78% | Loss of the distribution ratio of strontium after irradiation ([10]; dose 100 kGr): about 21% | Usefulness of extractant after irradiation [10]: practically useless | Distribution ratios, Rare-earth [11]: 0.06 | Distribution ratios, Rb [12]: 0.11 | Distribution ratios, Zr [13]: 1.41

di-isooxyldicyclohexane-18-crown-6 [DIODCH18C6]
Distribution ratio Strontium [1, 17]: <0.001 | Distribution ratio Strontium [1, 18]: 0.106 | Distribution ratio Cesium [2, 17]: 0.004

CC(C)(C)C1CCC2OCCOCCOC3CC(C(C)(C)C)CCC3OCCOCCOC2C1 (centres unmarked) [DTBDCH18C6]
Distribution ratio Strontium [1, 17]: <0.001 | Distribution ratio Strontium [1, 18]: 1.91

CC(C)(C)c1ccc2c(c1)OCCOCCOc1ccc(C(C)(C)C)cc1OCCOCCO2 [DTBDB18C6, bis(tert-butylbenzo)-18-crown-6]
Distribution ratios of sodium ([3]; nitric acid 0 mol/l): 0.03 | Distribution ratios of sodium ([3]; nitric acid 0.1 mol/l): 0.04 | Distribution ratios of sodium ([3]; nitric acid 0.5 mol/l): 0.17 | Distribution ratios of sodium ([3]; nitric acid 1.0 mol/l): 0.27 | Distribution ratios of sodium ([3]; nitric acid 3.0 mol/l): 0.55 | Distribution ratios of sodium ([3]; nitric acid 5.0 mol/l): 0.64 | Distribution ratio Strontium [1, 18]: 0.11 | Distribution ratios of cesium ([14]; nitric acid 0 mol/l, Fluoroheptanol n3): 2.5 | Distribution ratios of cesium ([14]; nitric acid 0.1 mol/l): 7.1 | Distribution ratios of cesium ([14]; nitric acid 0.5 mol/l): 12.8 | Distribution ratios of cesium ([14]; nitric acid 1.0 mol/l): 12.3 | Distribution ratios of cesium ([14]; nitric acid 2.0 mol/l): 10.3 | Distribution ratios of cesium ([14]; nitric acid 3.0 mol/l): 8.2 | Distribution ratios of cesium ([14]; nitric acid 4.0 mol/l): 6.0 | Distribution ratios of cesium ([14]; nitric acid 5.0 mol/l): 4.0 | Distribution ratios of cesium ([14]; nitric acid 6.0 mol/l): 2.7 | Distribution ratios of cesium ([14]; nitric acid 7.0 mol/l): 1.1 | Distribution ratios of cesium ([14]; nitric acid 8.0 mol/l): 0 | Sodium concentration in the organic phase ([15]; sodium in the aqueous phase 0.01 mol/l, crown ether about 0.05 mol/l in fluoroheptanol n3): 0 mol/L | Sodium concentration in the organic phase ([15]; sodium in the aqueous phase 0.1 mol/l, crown ether about 0.05 mol/l): 0.035 mol/L | Sodium concentration in the organic phase ([15]; sodium in the aqueous phase 0.2 mol/l, crown ether about 0.05 mol/l): 0.07 mol/L | Sodium concentration in the organic phase ([15]; sodium in the aqueous phase 0.4 mol/l, crown ether about 0.05 mol/l): 0.14 mol/L | Distribution ratio Cesium [2, 18]: 15.45 | Cesium distribution ratio ([16]; sodium nitrate 0 mole/l, crown ether about 0.1 mol/l in fluoroheptanol n3): 16.0 | Cesium distribution ratio ([16]; sodium nitrate 0.02 mole/l): 9.0 | Cesium distribution ratio ([16]; sodium nitrate 0.03 mole/l): 9.1 | Cesium distribution ratio ([16]; sodium nitrate 0.04 mole/l): 9.3 | Cesium distribution ratio ([16]; sodium nitrate 0.20 mole/l): 3.0
